Measurements from patent US20170000784A1, “Autophagy Inhibitors” (priority 2013, published 2017).
Like-named read-outs stand apart in the source and are kept apart here.

Assays:
[1] = test system: phospho-ERK1/2 and LC3-II in A375 cells; experiment: Western blot of A375 cells treated with PLX-4032 with and without autophagy inhibitors; assay type: cell-based, human; conditions: in combination with PLX-4032, FIG. 16C
Protocol: For Western blotting, U2OS cells were seeded in 10 cm plates in 5A McCoy's with 10% FBS at 1×10^6 cells per plate. All melanoma lines were seeded in 10 cm plates in RPMI 1640 with 10% FBS at 1×10^6 cells per plate. After 24 hours, cells were treated with CQ, QN, Example 27, or Example 7 in a dose response of 0.3 μM, 1 μM, 3 μM, 10 μM, and 30 μM for three hours. A375 were treated with PLX-4032 (Selleck Chemicals, S1267) at 10 nM, 100 nM, and 1 μM for three hours with and without CQ, QN, Example 7, and Example 27 at 3 μM and 30 μM. After treatment, cells were lysed [10 mM KPO4, 1 mM EDTA, 10 mM MgCl2, 5 mM EGTA, 50 mM bis-glycerophosphate, 0.5% NP40, 0.1% Brij35, 0.1% sodium deoxycholate, 1 mM NaVO4, 5 mM NaF, 2 mM DTT, and complete protease inhibitors (Sigma, P8340-5 mL)] and 50 μg of protein was resolved by SDS-PAGE. Proteins were transferred to PVDF membranes and probed with primary antibodies [LC3 (Sigma, L7543-200UL), anti-α-tubulin (Sigma, T6199), cathepsin B (Santa Cruz, sc-13985)] for 16 hours at 4° C. followed by a secondary antibody [HRP-linked rabbit or mouse IgG (GE Healthcare, NA934 or NA931) or Odyssey IRDye 680CW Goat anti-rabbit IgG (LI-COR, 926-32221) or IRDye 800CW Goat anti-mouse IgG (LI-COR, 926-32210)] for 1 hour at room temperature. Proteins were detected with enhanced chemiluminescence or using the Odyssey machine and quantified (FIGS. 12, 15, 16, 7 and 11).
Since the melanoma cell lines are capable of undergoing autophagy and sensitive to autophagy inhibition, the inventors questioned whether autophagy inhibitors could improve the efficacy of, or sensitize melanoma cells against cytotoxic and chemotherapeutic drugs for advanced metastatic melanoma. In one example, PLX-4032 drug “vemurafenib” (marketed as ZELBORAF®) is a B-Raf enzyme inhibitor developed by Plexxikon and Genentech for the treatment of late-stage melanoma. The name “vemurafenib” comes from V600E mutated BRAF inhibition. PLX-4032, selectively targets the V600E mutant BRAF and it is unknown how this drug may affect autophagic flux. To determine the effects of the drug on autophagic flux, the present inventors performed experiments to determine whether PLX-4032 induces autophagy, as has been observed with other targeted agents. In some embodiments, the accumulation of LC3-II in response to lysosome inhibition was measured by quantitative Western blotting, as described above. A375 cells were treated with PLX-4032 (10 nM, 100 nM, and 1 μM) for three hours in the presence or absence of CQ.

[2] = test system: endogenous LC3 in U2OS cells; experiment: Western blot of endogenous LC3 (LC3-II accumulation) in U2OS; assay type: cell-based; conditions: dose response, three hours, FIG. 11A
Protocol: For Western blotting, U2OS cells were seeded in 10 cm plates in 5A McCoy's with 10% FBS at 1×10^6 cells per plate. […] After treatment, cells were lysed [10 mM KPO4, 1 mM EDTA, 10 mM MgCl2, 5 mM EGTA, 50 mM bis-glycerophosphate, 0.5% NP40, 0.1% Brij35, 0.1% sodium deoxycholate, 1 mM NaVO4, 5 mM NaF, 2 mM DTT, and complete protease inhibitors (Sigma, P8340-5 mL)] and 50 μg of protein was resolved by SDS-PAGE. […] Proteins were detected with enhanced chemiluminescence or using the Odyssey machine and quantified (FIGS. 12, 15, 16, 7 and 11).

[3] = test system: P. falciparum K1 (CQ resistant); experiment: microbe, parasite or virus in culture; assay type: cell-based, Plasmodium falciparum; conditions: for antimalarial activity score: K1 strain; for IC50: Plasmodium falciparum, K1, Erythrocyte, read-out: Antimalarial activity (IC50) P. falciparum K1 (CQ resistant)
Protocol: In this example, compounds of Formula A, Formula A^1, Formula A^2, Formula A^3 or pharmaceutically acceptable salts thereof, are tested in Plasmodium sp infected cells to determine the effectiveness of these compounds to determine their anti-malarial activity. […] After 24 hours, plates were harvested with a Betaplate™ cell harvester (Wallac, Zurich Switzerland) which transferred the red blood cells onto a glass fiber filter and washed with distilled water. Dried filters were inserted into a plastic foil with 10 mL of scintillation fluid and counted in a Betaplate™ liquid scintillation counter (Wallac, Zurich Switzerland). Results were obtained as counts per minute (cpm) per well at each concentration.

[4] = test system: P. falciparum NF54 (CQ sensitive); experiment: In vitro P. falciparum asexual blood stage, [3H]-hypoxanthine, NF54; assay type: cell-based, Plasmodium falciparum; conditions: for antimalarial activity score: NF54 strain; for IC50: Plasmodium falciparum, NF54, Erythrocyte, read-out: Antimalarial activity (IC50) P. falciparum NF54 (CQ sensitive)
Protocol: In this example, compounds of Formula A, Formula A^1, Formula A^2, Formula A^3 or pharmaceutically acceptable salts thereof, are tested in Plasmodium sp infected cells to determine the effectiveness of these compounds to determine their anti-malarial activity. Exemplary compounds, Example 7 and Example 27 (See Table 1) were dissolved in DMSO at 10 mg/mL and 4× compound dilutions were prepared in screening medium [RPMI 1640 with no hypoxanthine, HEPES (5.94 μg/L), NaHCO3 (2.1 μg/L), Neomycin (100 μg/mL), and Albumax II (5 μg/L)]. Human red blood cells were prepared without and with stock cultures of P. falciparum strains, NF54 (Chloroquinine (CQ) sensitive) and K1 (CQ resistant), to a parasitemia of 0.3% and hematocrit of 2.5%. Using a 96-well plate, 100 μL/well of red blood solution was added along with a 2-fold serial dilution of Example 7 and Example 27. Plates were incubated at 37° C. with 93% N2, 4% CO2, and 3% O2 for 48 hours, after which 50 μL of [3H]-hypoxanthine (0.5 μCi) was added to each well. After 24 hours, plates were harvested with a Betaplate™ cell harvester (Wallac, Zurich Switzerland) which transferred the red blood cells onto a glass fiber filter and washed with distilled water. Dried filters were inserted into a plastic foil with 10 mL of scintillation fluid and counted in a Betaplate™ liquid scintillation counter (Wallac, Zurich Switzerland). Results were obtained as counts per minute (cpm) per well at each concentration.

Compound	LC3II accumulation [1]	accumulation of LC3-II [2]	antimalarial activity score [3]	IC50 [3] [nM]	antimalarial activity score [4]	IC50 ([4]; in vitro, infected human red blood cells) [nM]	IC50 [4] [nM]
COc1ccc2nc3cc(Cl)ccc3c(NCCCCN3CCN(C)CC3)c2c1 [Example 7, 6-Chloro-2-methoxy-N-(4-(4-methylpiperazin-1-yl)butyl)acridin-9-amine]	greater increases in LC3II accumulation	increased accumulation of LC3-II	good activity (good activity: IC50<50 ng/mL)	23	good activity (good activity: IC50<50 ng/mL)	4	–
CN1CCN(CCNc2c3c(nc4cc(Cl)ccc24)CCCC3)CC1 [Example 27, 6-Chloro-N-(2-(4-methylpiperazin-1-yl)ethyl)-1,2,3,4-tetrahydroacridin-9-amine]	greater increases in LC3II accumulation	increased accumulation of LC3-II	low activity (low activity: IC50 50-1000 ng/mL)	131	low activity (low activity: IC50 50-1000 ng/mL)	–	323
